What was measured:
Experiment in all cases: relative viability (nuclei count vs DMSO), 5 days (fraction); higher = more cells survive
LU99A = test system: LU99A
Procedure, shortened: (§1)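 Relative viability is defined as nuclei in treated wells over nuclei in vehicle wells. Duplicate plates were run and medians reported. Lung cancer cell lines in 1536-well plates were dosed by pin tool one day after seeding, with one drug or with a fixed anchor-drug dose plus five library-drug doses (not always all listed) in √10 steps, and nuclei were counted after 5 days.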

NCI-H2342 = test system: NCI-H2342
Procedure, shortened: as §1

NCI-H1437 = test system: NCI-H1437
Procedure, shortened: as §1

HARA = test system: HARA
Procedure, shortened: as §1

BEN = test system: BEN
Procedure, shortened: as §1

NCI-H2170 = test system: NCI-H2170
Procedure, shortened: as §1

LCLC-103H = test system: LCLC-103H
Procedure, shortened: as §1

NCI-H1666 = test system: NCI-H1666
Procedure, shortened: as §1

NCI-H3122 = test system: NCI-H3122
Procedure, shortened: as §1

NCI-H2085 = test system: NCI-H2085
Procedure, shortened: as §1

LXF-289 = test system: LXF-289
Procedure, shortened: as §1

RERF-LC-KJ = test system: RERF-LC-KJ
Procedure, shortened: as §1

For `C=C1C(=O)O[C@@H](CCCCCCCC)[C@@H]1C(=O)O` [C-75] + O=C(CCCCCCC(=O)Nc1ccccc1)NO [Vorinostat] (partner 1 µM), the relative viability (LU99A; first compound 0.8 µM) was 0.413, the relative viability (LU99A; first compound 2.53 µM) was 0.552 and the relative viability (LU99A; first compound 8 µM) was 0.495. The relative viability (NCI-H2342; first compound 0.08 µM) was 0.695, the relative viability (NCI-H2342; first compound 0.253 µM) was 0.728 and the relative viability (NCI-H2342; first compound 0.8 µM) was 0.71. The relative viability (NCI-H2342; first compound 2.53 µM) was 0.727, the relative viability (NCI-H2342; first compound 8 µM) was 0.736 and the relative viability (NCI-H1437; first compound 0.08 µM) was 0.866. For the same molecule, the relative viability (NCI-H1437; first compound 0.253 µM) was 0.98, the relative viability (NCI-H1437; first compound 0.8 µM) was 0.733 and the relative viability (NCI-H1437; first compound 8 µM) was 0.717. The relative viability (HARA; first compound 0.08 µM) was 0.598, the relative viability (HARA; first compound 0.253 µM) was 0.258 and the relative viability (HARA; first compound 0.8 µM) was 0.415. For the same molecule, the relative viability (HARA; first compound 2.53 µM) was 0.537, the relative viability (HARA; first compound 8 µM) was 0.438 and the relative viability (BEN; first compound 0.08 µM) was 0.642. For the same molecule, the relative viability (BEN; first compound 0.253 µM) was 0.574, the relative viability (BEN; first compound 0.8 µM) was 0.524 and the relative viability (BEN; first compound 2.53 µM) was 0.647. The relative viability (BEN; first compound 8 µM) was 0.606, the relative viability (NCI-H2170; first compound 0.08 µM) was 0.803 and the relative viability (NCI-H2170; first compound 0.253 µM) was 0.961. For the same molecule, the relative viability (NCI-H2170; first compound 0.8 µM) was 0.714, the relative viability (NCI-H2170; first compound 2.53 µM) was 0.697 and the relative viability (NCI-H2170; first compound 8 µM) was 0.808. It also gave a relative viability (LCLC-103H; first compound 0.08 µM) of 0.736, a relative viability (LCLC-103H; first compound 0.253 µM) of 0.758 and a relative viability (LCLC-103H; first compound 0.8 µM) of 0.708. It also gave a relative viability (LCLC-103H; first compound 2.53 µM) of 0.664, a relative viability (LCLC-103H; first compound 8 µM) of 0.765 and a relative viability (NCI-H1666; first compound 0.08 µM) of 1.05. The relative viability (NCI-H1666; first compound 0.253 µM) was 1.3, the relative viability (NCI-H1666; first compound 0.8 µM) was 0.895 and the relative viability (NCI-H1666; first compound 8 µM) was 0.913. It also gave a relative viability (NCI-H3122; first compound 0.08 µM) of 1.02, a relative viability (NCI-H3122; first compound 0.253 µM) of 1.6 and a relative viability (NCI-H3122; first compound 0.8 µM) of 1.01. The relative viability (NCI-H3122; first compound 2.53 µM) was 0.578, the relative viability (NCI-H3122; first compound 8 µM) was 0.989 and the relative viability (NCI-H2085; first compound 0.08 µM) was 0.801. It also gave a relative viability (NCI-H2085; first compound 0.253 µM) of 0.749, a relative viability (NCI-H2085; first compound 0.8 µM) of 0.752 and a relative viability (NCI-H2085; first compound 2.53 µM) of 0.664. For the same molecule, the relative viability (NCI-H2085; first compound 8 µM) was 0.738, the relative viability (LXF-289; first compound 0.08 µM) was 0.716 and the relative viability (LXF-289; first compound 0.253 µM) was 0.927. The relative viability (LXF-289; first compound 0.8 µM) was 0.742, the relative viability (LXF-289; first compound 2.53 µM) was 0.781 and the relative viability (LXF-289; first compound 8 µM) was 0.749. The relative viability (RERF-LC-KJ; first compound 0.08 µM) was 0.713, the relative viability (RERF-LC-KJ; first compound 0.253 µM) was 0.801 and the relative viability (RERF-LC-KJ; first compound 0.8 µM) was 0.687. For the same molecule, the relative viability (RERF-LC-KJ; first compound 2.53 µM) was 0.69 and the relative viability (RERF-LC-KJ; first compound 8 µM) was 0.71.
